Data reported in ChEMBL document CHEMBL3739316, “Novel orally active inhibitors of β-1,3-glucan synthesis derived from enfumafungin” (Bioorg Med Chem Lett, 2015).
≈ marks a conversion by molar mass, not a printed value.

Tests used:
[1] = system: Candida albicans; test: Antifungal activity against Candida albicans MY1055 after 24 hrs by liquid microdilution assay in presence of human serum; assay type: functional; details: MY1055, 24 h
[2] = biological target: T1, Beta-1,3-glucan synthase (Candida albicans, UniProt O13383); test: Displacement of UDP-[3H]glucose from beta-1,3-glucan synthase in Candida albicans MY1055 microsomal membranes incubated for 2 hrs
T1 sequence (O13383 whole entry): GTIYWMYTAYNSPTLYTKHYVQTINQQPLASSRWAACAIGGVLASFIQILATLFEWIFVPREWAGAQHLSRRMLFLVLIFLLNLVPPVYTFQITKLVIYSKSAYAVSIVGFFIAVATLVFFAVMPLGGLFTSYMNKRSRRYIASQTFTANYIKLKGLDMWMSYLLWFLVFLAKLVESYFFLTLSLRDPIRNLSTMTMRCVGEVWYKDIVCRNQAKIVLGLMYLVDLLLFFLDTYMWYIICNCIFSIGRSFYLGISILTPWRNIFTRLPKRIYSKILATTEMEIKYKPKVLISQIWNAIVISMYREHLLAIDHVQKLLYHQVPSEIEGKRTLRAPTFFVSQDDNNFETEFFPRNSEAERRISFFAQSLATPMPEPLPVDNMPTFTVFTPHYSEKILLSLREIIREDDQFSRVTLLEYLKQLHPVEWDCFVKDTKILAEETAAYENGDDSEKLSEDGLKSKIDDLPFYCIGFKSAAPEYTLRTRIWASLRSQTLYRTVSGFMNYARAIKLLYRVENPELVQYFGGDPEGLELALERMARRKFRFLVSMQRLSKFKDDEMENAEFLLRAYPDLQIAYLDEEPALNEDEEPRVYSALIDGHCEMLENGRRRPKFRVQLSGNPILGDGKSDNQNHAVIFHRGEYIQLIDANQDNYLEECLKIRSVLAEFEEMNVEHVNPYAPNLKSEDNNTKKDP

[3] = system: Aspergillus fumigatus; test: Antifungal activity against Aspergillus fumigatus MF5668 after 24 hrs by liquid microdilution assay; assay type: functional; details: MF5668, 24 h, read-out: MEC
[4] = system: Candida albicans; test: Antifungal activity against Candida albicans MY1055 after 24 hrs by liquid microdilution assay; assay type: functional; details: MY1055, 24 h
[5] = Oral bioavailability in mouse; assay type: ADME, organism-based; details: in vivo
[6] = system: Candida albicans; test: Antifungal activity against Candida albicans MY1055 in DBA/2 mouse candidiasis model assessed as change in CFU per gram of kidney at 25 mg/kg, po bid after 4 days by Target Organ Kidney Assay relative to sham treated control; assay type: functional
[7] = system: Mus musculus; test: Dose normalized AUC in orally dosed mouse; assay type: ADME, organism-based; details: in vivo, po
[8] = system: Candida albicans; test: Antifungal activity against Candida albicans MY1055 in DBA/2 mouse candidiasis model assessed as change in CFU per gram of kidney at 6.25 mg/kg, po bid after 4 days by Target Organ Kidney Assay relative to sham treated control; assay type: functional
[9] = system: Candida albicans; test: Antifungal activity against Candida albicans MY1055 in DBA/2 mouse candidiasis model assessed as change in CFU per gram of kidney at 12.5 mg/kg, po bid after 4 days by Target Organ Kidney Assay relative to sham treated control; assay type: functional

In the case of CC(C)[C@@H](C)[C@@]1(C)CC[C@]2(C)[C@H]3CC[C@H]4C5(C)COC[C@@]4(C[C@@H](Oc4ccccc4)[C@@H]5O[C@@H]4O[C@H](CO)[C@@H](O)[C@H](O)[C@H]4O)C3=CC[C@@]2(C)[C@@H]1C(=O)O, the MIC [1] is reported as 32 µg/mL, the IC50 [2] is reported as 578 nM and the minimal effective concentration [3] is reported as 0.125 µg/mL. It also gave an MIC [4] of 2 µg/mL (≈ 2.75 µM).

With CC(=O)Nc1nnn([C@@H]2C[C@@]34COCC(C)([C@H]2OC[C@](C)(N)C(C)C)[C@@H]3CC[C@H]2C4=CC[C@@]3(C)[C@H](C(=O)O)[C@@](C)([C@H](C)C(C)C)CC[C@]23C)n1 the MIC [1] was 16 µg/mL, the IC50 [2] was 86.1 nM and the minimal effective concentration [3] was less than 0.03 µg/mL. For the same compound, the MIC [4] was 0.25 µg/mL (≈ 0.359 µM).

Compound Cc1nnnn1[C@@H]1C[C@@]23COCC(C)([C@H]1OC[C@](C)(N)C(C)C)[C@@H]2CC[C@H]1C3=CC[C@@]2(C)[C@H](C(=O)O)[C@@](C)([C@H](C)C(C)C)CC[C@]12C has an MIC [1] greater than 32 µg/mL, an IC50 [2] of 71.9 nM and a minimal effective concentration [3] of 4 µg/mL. The MIC [4] was 8 µg/mL (≈ 12.2 µM).

With CC(C)[C@@H](C)[C@@]1(C)CC[C@]2(C)[C@H]3CC[C@H]4C5(C)COC[C@@]4(C[C@@H](n4cc6ccccc6n4)[C@@H]5O[C@@H]4O[C@H](CO)[C@@H](O)[C@H](O)[C@H]4O)C3=CC[C@@]2(C)[C@@H]1C(=O)O the MIC [1] was greater than 32 µg/mL, the IC50 [2] was 1200 nM and the minimal effective concentration [3] was 2 µg/mL. It also gave an MIC [4] of 32 µg/mL (≈ 42.6 µM).

CC(C)[C@@H](C)[C@@]1(C)CC[C@]2(C)[C@H]3CC[C@H]4C5(C)COC[C@@]4(C[C@@H](n4cccn4)[C@@H]5O[C@@H]4O[C@H](CO)[C@@H](O)[C@H](O)[C@H]4O)C3=CC[C@@]2(C)[C@@H]1C(=O)O showed an MIC [1] greater than 32 µg/mL, an IC50 [2] of 813 nM and a minimal effective concentration [3] of 0.06 µg/mL. The MIC [4] was 2 µg/mL (≈ 2.85 µM).

Work on CC(C)[C@@H](C)[C@@]1(C)CC[C@]2(C)[C@H]3CC[C@H]4C5(C)COC[C@@]4(C[C@@H](n4nnnc4N)[C@@H]5OC[C@](C)(N)C(C)C)C3=CC[C@@]2(C)[C@@H]1C(=O)O yielded an MIC [1] greater than 32 µg/mL, an IC50 [2] of 56.5 nM and a minimal effective concentration [3] of 0.25 µg/mL. It also gave an MIC [4] of 4 µg/mL (≈ 6.11 µM).

COc1ccc([C@@H]2C[C@@]34COCC(C)([C@H]2O[C@@H]2O[C@H](CO)[C@@H](O)[C@H](O)[C@H]2O)[C@@H]3CC[C@H]2C4=CC[C@@]3(C)[C@H](C(=O)O)[C@@](C)([C@H](C)C(C)C)CC[C@]23C)cc1 showed an MIC [1] greater than 32 µg/mL, an IC50 [2] of 634 nM and a minimal effective concentration [3] of 0.25 µg/mL. It also gave an MIC [4] of 2 µg/mL (≈ 2.7 µM).

For CC(C)[C@@H](C)[C@@]1(C)CC[C@]2(C)[C@H]3CC[C@H]4C5(C)COC[C@@]4(C[C@@H](n4ncc6ccccc64)[C@@H]5O[C@@H]4O[C@H](CO)[C@@H](O)[C@H](O)[C@H]4O)C3=CC[C@@]2(C)[C@@H]1C(=O)O, the MIC [1] was greater than 32 µg/mL, the IC50 [2] was greater than 1330 nM and the minimal effective concentration [3] was 8 µg/mL. The MIC [4] was 32 µg/mL (≈ 42.6 µM).

Work on CC(C)[C@@H](C)[C@@]1(C)CC[C@]2(C)[C@H]3CC[C@H]4C5(C)COC[C@@]4(C[C@@H](n4cncn4)[C@@H]5O[C@@H]4O[C@H](CO)[C@@H](O)[C@H](O)[C@H]4O)C3=CC[C@@]2(C)[C@@H]1C(=O)O yielded an MIC [1] of 32 µg/mL, an IC50 [2] of 342 nM and a minimal effective concentration [3] of 0.125 µg/mL. For the same compound, the MIC [4] was 2 µg/mL (≈ 2.85 µM).

With CC(=O)O[C@@H]1C[C@@]23COCC(C)([C@H]1OCC(C)(C)N)[C@@H]2CC[C@H]1C3=CC[C@@]2(C)[C@H](C(=O)O)[C@@](C)([C@H](C)C(C)C)CC[C@]12C the bioavailability [5] was 37%, the Activity [6] was -1.4 deltalog10CFU and the MIC [1] was 32 µg/mL. The IC50 [2] was 74.8 nM, the minimal effective concentration [3] was less than 0.03 µg/mL and the AUC/dose [7] was 1.22 µM·kg·h/mg. The MIC [4] was 1 µg/mL (≈ 1.66 µM).

Work on Cc1nnn([C@@H]2C[C@@]34COCC(C)([C@H]2OC[C@](C)(N)C(C)C)[C@@H]3CC[C@H]2C4=CC[C@@]3(C)[C@H](C(=O)O)[C@@](C)([C@H](C)C(C)C)CC[C@]23C)n1 yielded an MIC [1] greater than 32 µg/mL, an IC50 [2] of 24.5 nM and a minimal effective concentration [3] of 0.5 µg/mL. The MIC [4] was 1 µg/mL (≈ 1.53 µM).

For CCCCN[C@@](C)(CO[C@H]1[C@H](n2nnc(N)n2)C[C@@]23COCC1(C)[C@@H]2CC[C@H]1C3=CC[C@@]2(C)[C@H](C(=O)O)[C@@](C)([C@H](C)C(C)C)CC[C@]12C)C(C)C, the bioavailability [5] was 30%, the Activity [6] was -2.6 deltalog10CFU and the MIC [1] was 32 µg/mL. For the same compound, the IC50 [2] was 14.1 nM, the Activity [8] was -0.1 deltalog10CFU and the minimal effective concentration [3] was 0.125 µg/mL. For the same compound, the Activity [9] was -1.2 deltalog10CFU, the AUC/dose [7] was 0.74 µM·kg·h/mg and the MIC [4] was 16 µg/mL (≈ 22.5 µM).

Work on CC(C)[C@@H](C)[C@@]1(C)CC[C@]2(C)[C@H]3CC[C@H]4C5(C)COC[C@@]4(C[C@@H](n4ccc6ccccc64)[C@@H]5O[C@@H]4O[C@H](CO)[C@@H](O)[C@H](O)[C@H]4O)C3=CC[C@@]2(C)[C@@H]1C(=O)O yielded an MIC [1] greater than 32 µg/mL, an IC50 [2] of 1410 nM and a minimal effective concentration [3] of 4 µg/mL. For the same compound, the MIC [4] was greater than 32 µg/mL.

Work on CC(C)[C@@H](C)[C@@]1(C)CC[C@]2(C)[C@H]3CC[C@H]4C5(C)COC[C@@]4(C[C@@H](n4cnnc4)[C@@H]5O[C@@H]4O[C@H](CO)[C@@H](O)[C@H](O)[C@H]4O)C3=CC[C@@]2(C)[C@@H]1C(=O)O yielded an MIC [1] greater than 32 µg/mL, a minimal effective concentration [3] of 1 µg/mL and an MIC [4] of 4 µg/mL (≈ 5.7 µM).

CC(=O)O[C@@H]1C[C@@]23COCC(C)([C@H]1OC[C@](C)(N)C(C)C)[C@@H]2CC[C@H]1C3=CC[C@@]2(C)[C@H](C(=O)O)[C@@](C)([C@H](C)C(C)C)CC[C@]12C gave a bioavailability [5] of 39%, an Activity [6] of -2.2 deltalog10CFU and an MIC [1] greater than 32 µg/mL. For the same compound, the IC50 [2] was 9.52 nM, the Activity [8] was -0.6 deltalog10CFU and the minimal effective concentration [3] was 0.06 µg/mL. It also gave an Activity [9] of -0.6 deltalog10CFU, an AUC/dose [7] of 1.38 µM·kg·h/mg and an MIC [4] of 0.5 µg/mL (≈ 0.794 µM).

With CC(C)[C@@H](C)[C@@]1(C)CC[C@]2(C)[C@H]3CC[C@H]4C5(C)COC[C@@]4(C[C@@H](n4ccnn4)[C@@H]5O[C@@H]4O[C@H](CO)[C@@H](O)[C@H](O)[C@H]4O)C3=CC[C@@]2(C)[C@@H]1C(=O)O the MIC [1] was greater than 32 µg/mL, the IC50 [2] was greater than 14200 nM and the minimal effective concentration [3] was 2 µg/mL. For the same compound, the MIC [4] was greater than 32 µg/mL.

With CC(=O)O[C@@H]1C[C@@]23COCC(C)([C@H]1OC[C@@](C)(N)C(C)C)[C@@H]2CC[C@H]1C3=CC[C@@]2(C)[C@H](C(=O)O)[C@@](C)([C@H](C)C(C)C)CC[C@]12C the bioavailability [5] was 31%, the Activity [6] was -1.9 deltalog10CFU and the MIC [1] was 16 µg/mL. For the same compound, the IC50 [2] was 22.2 nM, the Activity [8] was -0.5 deltalog10CFU and the minimal effective concentration [3] was less than 0.03 µg/mL. The Activity [9] was -0.1 deltalog10CFU, the AUC/dose [7] was 0.73 µM·kg·h/mg and the MIC [4] was 0.25 µg/mL (≈ 0.397 µM).

In the case of CC(=O)Nc1nnnn1[C@@H]1C[C@@]23COCC(C)([C@H]1OC[C@](C)(N)C(C)C)[C@@H]2CC[C@H]1C3=CC[C@@]2(C)[C@H](C(=O)O)[C@@](C)([C@H](C)C(C)C)CC[C@]12C, the MIC [1] is reported as greater than 32 µg/mL, the IC50 [2] is reported as 81.8 nM and the minimal effective concentration [3] is reported as less than 0.03 µg/mL. It also gave an MIC [4] of 8 µg/mL (≈ 11.5 µM).

Compound CC(C)[C@@H](C)[C@@]1(C)CC[C@]2(C)[C@H]3CC[C@H]4C5(C)COC[C@@]4(C[C@@H](n4nccn4)[C@@H]5O[C@@H]4O[C@H](CO)[C@@H](O)[C@H](O)[C@H]4O)C3=CC[C@@]2(C)[C@@H]1C(=O)O has an MIC [1] greater than 32 µg/mL, an IC50 [2] of 1410 nM and a minimal effective concentration [3] of 0.5 µg/mL. It also gave an MIC [4] greater than 32 µg/mL.
